Test results as given in patent publication US10167262B2, “Herbicidal substituted 3-arylpyrazoles” (FMC CORPORATION, priority 2014, dated 2019).

Assays:
Assay in all cases: Test C postemergence greenhouse test, plant response rating 0-100
Format in all cases: in vivo
[1] = tested on: downy bromegrass (Bromus tectorum); settings: for Plant response rating, Bromegrass, Downy: scale 0 to 100
Procedure, shortened: (§1)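 First, plants were raised in a sphagnum peat, vermiculite and nutrient medium to 1–4 leaves. Next, formulated test compounds were applied over the foliage. Finally, after 13–15 greenhouse days, injury was compared with controls and scored 0–100.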

[2] = tested on: canarygrass (Phalaris minor); settings: for Plant response rating, Canarygrass: scale 0 to 100
Procedure, shortened: as §1

[3] = tested on: windgrass (Apera spica-venti); settings: for Plant response rating, Windgrass: scale 0 to 100
Procedure, shortened: as §1

[4] = tested on: bermudagrass (Cynodon dactylon); settings: for Plant response rating, Bermudagrass: scale 0 to 100
Procedure, shortened: as §1

[5] = tested on: cocklebur (common cocklebur, Xanthium strumarium); settings: for Plant response rating, Cocklebur: scale 0 to 100
Procedure, shortened: as §1

[6] = tested on: woolly cupgrass (Eriochloa villosa); settings: for Plant response rating, Cupgrass, Woolly: scale 0 to 100
Procedure, shortened: as §1

[7] = tested on: surinam grass (Brachiaria decumbens); settings: for Plant response rating, Surinam Grass: scale 0 to 100
Procedure, shortened: as §1

[8] = tested on: deadnettle (henbit deadnettle, Lamium amplexicaule); settings: for Plant response rating, Deadnettle: scale 0 to 100
Procedure, shortened: as §1

[9] = tested on: winter barley (Hordeum vulgare); settings: for Plant response rating, Barley: scale 0 to 100
Procedure, shortened: as §1

[10] = tested on: green foxtail (Setaria viridis); settings: for Plant response rating, Foxtail, Green: scale 0 to 100
Procedure, shortened: as §1

Fc1ccc(NN=C(c2ccccc2)c2c[nH]nc2-c2cc(Cl)cc(Cl)c2)cc1 [Compound 35]
75: Plant response rating, Cocklebur ([5]; 250 g ai/ha) | Plant response rating, Cocklebur ([5]; 500 g ai/ha)
60: Plant response rating (0 to 100), Cocklebur ([5]; 62 g ai/ha) | Plant response rating (0 to 100), Cocklebur ([5]; 125 g ai/ha)
0: Plant response rating (0 to 100), Bromegrass, Downy ([1]; 62 g ai/ha) | Plant response rating (0 to 100), Bromegrass, Downy ([1]; 125 g ai/ha) | Plant response rating, Bromegrass, Downy ([1]; 250 g ai/ha) | Plant response rating, Bromegrass, Downy ([1]; 500 g ai/ha) | Plant response rating (0 to 100), Canarygrass ([2]; 62 g ai/ha) | Plant response rating (0 to 100), Canarygrass ([2]; 125 g ai/ha) | Plant response rating, Canarygrass ([2]; 250 g ai/ha) | Plant response rating, Canarygrass ([2]; 500 g ai/ha) | Plant response rating (0 to 100), Windgrass ([3]; 62 g ai/ha) | Plant response rating (0 to 100), Windgrass ([3]; 125 g ai/ha) | Plant response rating, Windgrass ([3]; 250 g ai/ha) | Plant response rating, Windgrass ([3]; 500 g ai/ha) | Plant response rating (0 to 100), Bermudagrass ([4]; 62 g ai/ha) | Plant response rating (0 to 100), Bermudagrass ([4]; 125 g ai/ha) | Plant response rating, Bermudagrass ([4]; 250 g ai/ha) | Plant response rating, Bermudagrass ([4]; 500 g ai/ha) | Plant response rating (0 to 100), Surinam Grass ([7]; 62 g ai/ha) | Plant response rating (0 to 100), Surinam Grass ([7]; 125 g ai/ha) | Plant response rating, Surinam Grass ([7]; 250 g ai/ha) | Plant response rating, Surinam Grass ([7]; 500 g ai/ha) | Plant response rating (0 to 100), Deadnettle ([8]; 62 g ai/ha) | Plant response rating (0 to 100), Deadnettle ([8]; 125 g ai/ha) | Plant response rating, Deadnettle ([8]; 250 g ai/ha) | Plant response rating, Deadnettle ([8]; 500 g ai/ha) | Plant response rating (0 to 100), Barley ([9]; 62 g ai/ha) | Plant response rating (0 to 100), Barley ([9]; 125 g ai/ha) | Plant response rating, Barley ([9]; 250 g ai/ha) | Plant response rating, Barley ([9]; 500 g ai/ha) | Plant response rating (0 to 100), Foxtail, Green ([10]; 62 g ai/ha) | Plant response rating (0 to 100), Foxtail, Green ([10]; 125 g ai/ha) | Plant response rating, Foxtail, Green ([10]; 250 g ai/ha)
20: Plant response rating, Foxtail, Green ([10]; 500 g ai/ha)
5: Plant response rating (0 to 100), Cupgrass, Woolly ([6]; 62 g ai/ha) | Plant response rating (0 to 100), Cupgrass, Woolly ([6]; 125 g ai/ha) | Plant response rating, Cupgrass, Woolly ([6]; 250 g ai/ha) | Plant response rating, Cupgrass, Woolly ([6]; 500 g ai/ha)

CCn1cc(C(=NN2CCCC2)c2ccccc2)c(-c2cc(Cl)cc(Cl)c2)n1 [Compound 37]
15: Plant response rating (0 to 100), Cocklebur ([5]; 125 g ai/ha)
10: Plant response rating (0 to 100), Cocklebur ([5]; 62 g ai/ha)
5: Plant response rating (0 to 100), Cocklebur ([5]; 31 g ai/ha) | Plant response rating (0 to 100), Cupgrass, Woolly ([6]; 31 g ai/ha) | Plant response rating (0 to 100), Cupgrass, Woolly ([6]; 62 g ai/ha) | Plant response rating (0 to 100), Cupgrass, Woolly ([6]; 125 g ai/ha) | Plant response rating, Cupgrass, Woolly ([6]; 250 g ai/ha)
20: Plant response rating, Cocklebur ([5]; 250 g ai/ha)
0: Plant response rating (0 to 100), Bromegrass, Downy ([1]; 31 g ai/ha) | Plant response rating (0 to 100), Bromegrass, Downy ([1]; 62 g ai/ha) | Plant response rating (0 to 100), Bromegrass, Downy ([1]; 125 g ai/ha) | Plant response rating, Bromegrass, Downy ([1]; 250 g ai/ha) | Plant response rating (0 to 100), Canarygrass ([2]; 31 g ai/ha) | Plant response rating (0 to 100), Canarygrass ([2]; 62 g ai/ha) | Plant response rating (0 to 100), Canarygrass ([2]; 125 g ai/ha) | Plant response rating, Canarygrass ([2]; 250 g ai/ha) | Plant response rating (0 to 100), Windgrass ([3]; 62 g ai/ha) | Plant response rating (0 to 100), Windgrass ([3]; 125 g ai/ha) | Plant response rating, Windgrass ([3]; 250 g ai/ha) | Plant response rating (0 to 100), Bermudagrass ([4]; 31 g ai/ha) | Plant response rating (0 to 100), Bermudagrass ([4]; 62 g ai/ha) | Plant response rating (0 to 100), Bermudagrass ([4]; 125 g ai/ha) | Plant response rating, Bermudagrass ([4]; 250 g ai/ha) | Plant response rating (0 to 100), Surinam Grass ([7]; 62 g ai/ha) | Plant response rating (0 to 100), Surinam Grass ([7]; 125 g ai/ha) | Plant response rating, Surinam Grass ([7]; 250 g ai/ha) | Plant response rating (0 to 100), Deadnettle ([8]; 31 g ai/ha) | Plant response rating (0 to 100), Deadnettle ([8]; 62 g ai/ha) | Plant response rating (0 to 100), Deadnettle ([8]; 125 g ai/ha) | Plant response rating, Deadnettle ([8]; 250 g ai/ha) | Plant response rating (0 to 100), Barley ([9]; 31 g ai/ha) | Plant response rating (0 to 100), Barley ([9]; 62 g ai/ha) | Plant response rating (0 to 100), Barley ([9]; 125 g ai/ha) | Plant response rating, Barley ([9]; 250 g ai/ha) | Plant response rating (0 to 100), Foxtail, Green ([10]; 31 g ai/ha) | Plant response rating (0 to 100), Foxtail, Green ([10]; 62 g ai/ha) | Plant response rating (0 to 100), Foxtail, Green ([10]; 125 g ai/ha) | Plant response rating, Foxtail, Green ([10]; 250 g ai/ha)

CCn1cc(C(=O)c2ccccc2)c(-c2cc(Br)cc(Br)c2)n1 [Compound 38]
0: Plant response rating (0 to 100), Bromegrass, Downy ([1]; 31 g ai/ha) | Plant response rating (0 to 100), Bromegrass, Downy ([1]; 62 g ai/ha) | Plant response rating (0 to 100), Bromegrass, Downy ([1]; 125 g ai/ha) | Plant response rating, Bromegrass, Downy ([1]; 250 g ai/ha) | Plant response rating (0 to 100), Canarygrass ([2]; 31 g ai/ha) | Plant response rating (0 to 100), Canarygrass ([2]; 62 g ai/ha) | Plant response rating (0 to 100), Canarygrass ([2]; 125 g ai/ha) | Plant response rating (0 to 100), Windgrass ([3]; 62 g ai/ha) | Plant response rating (0 to 100), Windgrass ([3]; 125 g ai/ha) | Plant response rating, Windgrass ([3]; 250 g ai/ha) | Plant response rating (0 to 100), Bermudagrass ([4]; 31 g ai/ha) | Plant response rating (0 to 100), Bermudagrass ([4]; 62 g ai/ha) | Plant response rating (0 to 100), Bermudagrass ([4]; 125 g ai/ha) | Plant response rating, Bermudagrass ([4]; 250 g ai/ha) | Plant response rating (0 to 100), Cupgrass, Woolly ([6]; 31 g ai/ha) | Plant response rating (0 to 100), Cupgrass, Woolly ([6]; 62 g ai/ha) | Plant response rating (0 to 100), Cupgrass, Woolly ([6]; 125 g ai/ha) | Plant response rating, Cupgrass, Woolly ([6]; 250 g ai/ha) | Plant response rating (0 to 100), Surinam Grass ([7]; 62 g ai/ha) | Plant response rating (0 to 100), Surinam Grass ([7]; 125 g ai/ha) | Plant response rating, Surinam Grass ([7]; 250 g ai/ha) | Plant response rating (0 to 100), Deadnettle ([8]; 31 g ai/ha) | Plant response rating (0 to 100), Deadnettle ([8]; 62 g ai/ha) | Plant response rating (0 to 100), Deadnettle ([8]; 125 g ai/ha) | Plant response rating (0 to 100), Barley ([9]; 31 g ai/ha) | Plant response rating (0 to 100), Barley ([9]; 62 g ai/ha) | Plant response rating (0 to 100), Barley ([9]; 125 g ai/ha) | Plant response rating, Barley ([9]; 250 g ai/ha) | Plant response rating (0 to 100), Foxtail, Green ([10]; 31 g ai/ha) | Plant response rating (0 to 100), Foxtail, Green ([10]; 62 g ai/ha) | Plant response rating (0 to 100), Foxtail, Green ([10]; 125 g ai/ha)
10: Plant response rating (0 to 100), Cocklebur ([5]; 62 g ai/ha)
5: Plant response rating, Canarygrass ([2]; 250 g ai/ha) | Plant response rating (0 to 100), Cocklebur ([5]; 31 g ai/ha) | Plant response rating, Deadnettle ([8]; 250 g ai/ha) | Plant response rating, Foxtail, Green ([10]; 250 g ai/ha)
15: Plant response rating (0 to 100), Cocklebur ([5]; 125 g ai/ha) | Plant response rating, Cocklebur ([5]; 250 g ai/ha)

CC(C)n1cc(C(=O)c2ccccc2)c(-c2cc(Cl)cc(Cl)c2)n1 [Compound 44]
0: Plant response rating (0 to 100), Bromegrass, Downy ([1]; 31 g ai/ha) | Plant response rating (0 to 100), Bromegrass, Downy ([1]; 62 g ai/ha) | Plant response rating (0 to 100), Bromegrass, Downy ([1]; 125 g ai/ha) | Plant response rating, Bromegrass, Downy ([1]; 250 g ai/ha) | Plant response rating (0 to 100), Canarygrass ([2]; 31 g ai/ha) | Plant response rating (0 to 100), Canarygrass ([2]; 62 g ai/ha) | Plant response rating (0 to 100), Canarygrass ([2]; 125 g ai/ha) | Plant response rating, Canarygrass ([2]; 250 g ai/ha) | Plant response rating (0 to 100), Windgrass ([3]; 62 g ai/ha) | Plant response rating (0 to 100), Windgrass ([3]; 125 g ai/ha) | Plant response rating, Windgrass ([3]; 250 g ai/ha) | Plant response rating (0 to 100), Bermudagrass ([4]; 31 g ai/ha) | Plant response rating (0 to 100), Bermudagrass ([4]; 62 g ai/ha) | Plant response rating (0 to 100), Bermudagrass ([4]; 125 g ai/ha) | Plant response rating, Bermudagrass ([4]; 250 g ai/ha) | Plant response rating (0 to 100), Cocklebur ([5]; 31 g ai/ha) | Plant response rating (0 to 100), Cocklebur ([5]; 62 g ai/ha) | Plant response rating (0 to 100), Cupgrass, Woolly ([6]; 31 g ai/ha) | Plant response rating (0 to 100), Surinam Grass ([7]; 62 g ai/ha) | Plant response rating (0 to 100), Surinam Grass ([7]; 125 g ai/ha) | Plant response rating, Surinam Grass ([7]; 250 g ai/ha) | Plant response rating (0 to 100), Deadnettle ([8]; 31 g ai/ha) | Plant response rating (0 to 100), Deadnettle ([8]; 62 g ai/ha) | Plant response rating (0 to 100), Deadnettle ([8]; 125 g ai/ha) | Plant response rating, Deadnettle ([8]; 250 g ai/ha) | Plant response rating (0 to 100), Barley ([9]; 31 g ai/ha) | Plant response rating (0 to 100), Barley ([9]; 62 g ai/ha) | Plant response rating (0 to 100), Barley ([9]; 125 g ai/ha) | Plant response rating, Barley ([9]; 250 g ai/ha) | Plant response rating (0 to 100), Foxtail, Green ([10]; 31 g ai/ha) | Plant response rating (0 to 100), Foxtail, Green ([10]; 62 g ai/ha) | Plant response rating (0 to 100), Foxtail, Green ([10]; 125 g ai/ha) | Plant response rating, Foxtail, Green ([10]; 250 g ai/ha)
10: Plant response rating (0 to 100), Cocklebur ([5]; 125 g ai/ha)
30: Plant response rating, Cocklebur ([5]; 250 g ai/ha)
5: Plant response rating (0 to 100), Cupgrass, Woolly ([6]; 62 g ai/ha) | Plant response rating (0 to 100), Cupgrass, Woolly ([6]; 125 g ai/ha) | Plant response rating, Cupgrass, Woolly ([6]; 250 g ai/ha)
